Patent publication US8796279B2, “4′-demethylepipodophyllotoxin derivative, preparation method and use thereof” (Hubei University of Technology, priority 2010, dated 2014)
Like-named read-outs stand apart in the source and are kept apart here.

What was measured:
HepG2 tumor cell strain = assay: HepG2 tumor cell growth inhibition, MTT method; details: for IC50: Homo sapiens, HepG2, 48 h, read-out: half growth inhibition concentration (IC50)
[1] = Lipid-water partition coefficient test (n-octanol / biological brine, UV)
Method: I mg of each of 4-(2,3,5,6-tetramethylpyrazin-1-yl)-4′-demethylepipodophyllotoxin, 4′-demethylepipodophyllotoxin and podophyllotoxin was respectively dissolved into 3 centrifuge tubes of 10 mL each containing 2 mL n-octanol and 2 mL biological brine, the tubes were capped tight, shook thoroughly for 10 min, and subsequently let stand for 20 min. 0.2 mL of the organic- and water phase were respectively pipetted into clean test tubes. Absorbance (A) values of the organic- and water phase were measured using UV method, respectively, using A to calculate the weights of the drugs dissolved in the organic- and water layer, Walcohol and Wwater, respectively. The operations were repeated 3 times, averages were calculated, lipid-water partition coefficients were calculated using Eq. 1:
[formula] where Walcohol and Wwater denote the measured weights of drugs in n-octanol- and water phase, respectively; Valcohol and Vwater denote volumes of n-octanol- and water phase, respectively. 3. Results

[2] = tested on: human proximal tubule cell strain HK-2; assay: HK-2 normal cell growth inhibition (cell toxicity), MTT method; assay type: cell-based; details: HK-2 normal cells, from IC50 values
[3] = as above; assay type: cell-based, human; details: human, HK-2 cells (proximal tubule); HK-2 normal cells, MTT, 48 h; read-out: half growth inhibition concentration (IC50), cell toxicity
[4] = tested on: human gastric cancer cell strain BGC-823; assay: BGC-823 tumor cell growth inhibition, MTT method; assay type: cell-based; details: read-out: half growth inhibition concentration (IC50)
[5] = tested on: human pulmonary cancer cell strain A549; assay: A549 tumor cell growth inhibition, MTT method; details: read-out: half growth inhibition concentration (IC50)
[6] = Homo sapiens, BGC-823 cells, MTT, 48 h

Compound | IC50 (HepG2 tumor cell strain) [nM] | logP [1] | IC50 at 48 h [3] [nM] | IC50 [4, 6] [nM] | IC50 ([5]; Homo sapiens, A549, 48 h) [nM] | also measured
COc1cc([C@@H]2c3cc4c(cc3[C@@H]([n+]3c(C)c(C)nc(C)c3C)[C@H]3COC(=O)[C@H]23)OCO4)cc(OC)c1O [4-(2,3,5,6-tetramethylpyrazin-1-yl)-4′-demethylepipodophyllotoxin] | 290 | 0.66 | 240 | 60 | 230 | inhibition activity raised in comparison with etoposide (HepG2 tumor cell strain; HepG2 cells, from IC50 values): 2.7 times; lipid water partition coefficient increased than 4′-demethylepipodophyllotoxin ([1]; from logP values): 16%; lipid water partition coefficient increased than podophyllotoxin ([1]; from logP values): 94%; cell toxicity decreased in comparison with podophyllotoxin [2]: ~66 times
COc1cc([C@@H]2c3cc4c(cc3[C@@H](O)[C@H]3COC(=O)[C@H]23)OCO4)cc(OC)c1O [4′-demethylepipodophyllotoxin] | – | – | – | – | – | IC50 ([4]; BGC-823 cells, MTT, 48 h): 398000 nM; IC50 ([5]; A549 cells, MTT, 48 h): 450 nM
COc1cc([C@@H]2c3cc4c(cc3[C@@H](O[C@@H]3O[C@@H]5CO[C@@H](C)O[C@H]5[C@H](O)[C@H]3O)[C@H]3COC(=O)[C@H]23)OCO4)cc(OC)c1O [etoposide] | 1060 | – | – | 14000 | 165000 | –
COc1cc([C@@H]2c3cc4c(cc3[C@H](O)[C@H]3COC(=O)[C@H]23)OCO4)cc(OC)c1OC [podophyllotoxin] | – | 0.34 | 3.5 | – | – | IC50 ([4]; Homo sapiens, BGC-823, 48 h): 529000 nM
Cc1nc(C)c(C)nc1C [tetramethylpyrazine] | – | > 5 | – | – | – | lipid-water partition coefficient (logP) [1]: >5
